This note sets out measurements from the kinase profiling compilation of Christmann-Franck et al. (2016).

MAPK10 (human), sequence (P53779 whole entry, looked up): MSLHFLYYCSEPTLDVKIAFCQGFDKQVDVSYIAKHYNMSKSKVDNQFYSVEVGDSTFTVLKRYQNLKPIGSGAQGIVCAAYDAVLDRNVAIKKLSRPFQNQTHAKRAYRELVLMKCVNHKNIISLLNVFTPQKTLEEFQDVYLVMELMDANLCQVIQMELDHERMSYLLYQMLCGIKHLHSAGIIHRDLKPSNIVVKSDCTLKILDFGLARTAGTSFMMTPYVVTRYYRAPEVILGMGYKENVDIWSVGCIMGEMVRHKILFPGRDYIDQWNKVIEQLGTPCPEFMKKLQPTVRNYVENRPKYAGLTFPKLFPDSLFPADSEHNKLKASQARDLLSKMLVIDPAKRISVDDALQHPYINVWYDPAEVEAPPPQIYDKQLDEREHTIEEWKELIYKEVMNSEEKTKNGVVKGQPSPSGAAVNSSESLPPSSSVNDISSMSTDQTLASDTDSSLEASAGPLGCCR
ACVR1B (human), sequence (P36896 whole entry, looked up): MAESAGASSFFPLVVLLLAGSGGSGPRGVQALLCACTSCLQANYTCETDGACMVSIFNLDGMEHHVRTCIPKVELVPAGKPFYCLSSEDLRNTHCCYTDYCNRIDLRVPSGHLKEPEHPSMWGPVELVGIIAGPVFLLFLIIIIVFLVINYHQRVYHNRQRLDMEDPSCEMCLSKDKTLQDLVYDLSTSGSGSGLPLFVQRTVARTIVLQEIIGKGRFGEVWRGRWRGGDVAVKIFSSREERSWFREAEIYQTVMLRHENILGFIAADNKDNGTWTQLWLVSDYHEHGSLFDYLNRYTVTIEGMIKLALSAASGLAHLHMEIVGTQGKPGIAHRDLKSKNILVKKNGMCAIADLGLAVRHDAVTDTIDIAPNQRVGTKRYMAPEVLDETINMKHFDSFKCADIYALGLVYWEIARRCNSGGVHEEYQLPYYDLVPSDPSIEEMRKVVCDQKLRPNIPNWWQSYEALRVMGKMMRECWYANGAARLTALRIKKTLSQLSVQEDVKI
NEK6 (human), sequence (Q9HC98 whole entry, looked up): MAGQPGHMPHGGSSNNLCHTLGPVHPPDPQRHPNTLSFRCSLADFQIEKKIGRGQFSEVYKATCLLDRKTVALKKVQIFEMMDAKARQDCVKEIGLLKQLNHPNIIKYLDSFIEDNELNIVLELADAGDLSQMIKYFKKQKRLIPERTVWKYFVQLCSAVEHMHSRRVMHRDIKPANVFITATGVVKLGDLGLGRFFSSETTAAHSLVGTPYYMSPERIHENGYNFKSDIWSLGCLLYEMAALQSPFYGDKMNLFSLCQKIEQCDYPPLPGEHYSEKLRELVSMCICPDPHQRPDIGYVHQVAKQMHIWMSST

In the first assay the target is MAP2K1 (human) (UniProt Q02750). Kind of assay: radiometric filter-binding kinase assay, Kinase HotSpot. Particulars: compound 0.5 µM; ATP 10 µM.
MAP2K1 (human), sequence (Q02750 whole entry, looked up): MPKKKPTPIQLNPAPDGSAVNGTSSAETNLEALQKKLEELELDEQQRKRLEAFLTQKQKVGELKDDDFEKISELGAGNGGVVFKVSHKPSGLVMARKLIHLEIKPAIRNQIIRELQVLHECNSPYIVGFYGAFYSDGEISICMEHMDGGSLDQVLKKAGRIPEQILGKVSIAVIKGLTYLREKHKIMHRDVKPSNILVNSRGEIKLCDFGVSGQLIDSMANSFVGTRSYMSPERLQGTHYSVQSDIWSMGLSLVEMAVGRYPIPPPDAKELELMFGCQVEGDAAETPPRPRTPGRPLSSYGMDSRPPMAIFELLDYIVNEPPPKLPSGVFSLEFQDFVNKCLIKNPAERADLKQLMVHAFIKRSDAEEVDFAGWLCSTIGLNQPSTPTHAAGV
With `CNc1cc2c(Nc3cccc(Br)c3)ncnc2cn1`, the residual activity came out at 74.6%.

With `Cc1ccc(Nc2nccc(N(C)c3ccc4c(C)n(C)nc4c3)n2)cc1S(N)(=O)=O`, the residual activity amounted to 106%.

Turning to `Oc1cccc(-c2nc(N3CCOCC3)c3oc4ncccc4c3n2)c1`, the residual activity is 97.7%.

The next assay has as its target ACVR1B (human) (UniProt P36896). Described as above. To be noted: compound 0.5 µM; ATP 10 µM.
As for `O=C1NC(=O)C(c2cn(CCCn3ccnc3)c3ccccc23)=C1Nc1ccccc1`, the residual activity came out at 96.2%.

On to `CNc1cc2c(Nc3cccc(Br)c3)ncnc2cn1`, for which the residual activity amounted to 97.7%.

Consider `Cc1ccc(Nc2nccc(N(C)c3ccc4c(C)n(C)nc4c3)n2)cc1S(N)(=O)=O`, for which the residual activity amounted to 100%.

In the next assay the target is PRKCZ (human) (UniProt Q05513). The assay is described as above. Particulars: compound 0.5 µM; ATP 10 µM.
PRKCZ (human), sequence (Q05513 whole entry, looked up): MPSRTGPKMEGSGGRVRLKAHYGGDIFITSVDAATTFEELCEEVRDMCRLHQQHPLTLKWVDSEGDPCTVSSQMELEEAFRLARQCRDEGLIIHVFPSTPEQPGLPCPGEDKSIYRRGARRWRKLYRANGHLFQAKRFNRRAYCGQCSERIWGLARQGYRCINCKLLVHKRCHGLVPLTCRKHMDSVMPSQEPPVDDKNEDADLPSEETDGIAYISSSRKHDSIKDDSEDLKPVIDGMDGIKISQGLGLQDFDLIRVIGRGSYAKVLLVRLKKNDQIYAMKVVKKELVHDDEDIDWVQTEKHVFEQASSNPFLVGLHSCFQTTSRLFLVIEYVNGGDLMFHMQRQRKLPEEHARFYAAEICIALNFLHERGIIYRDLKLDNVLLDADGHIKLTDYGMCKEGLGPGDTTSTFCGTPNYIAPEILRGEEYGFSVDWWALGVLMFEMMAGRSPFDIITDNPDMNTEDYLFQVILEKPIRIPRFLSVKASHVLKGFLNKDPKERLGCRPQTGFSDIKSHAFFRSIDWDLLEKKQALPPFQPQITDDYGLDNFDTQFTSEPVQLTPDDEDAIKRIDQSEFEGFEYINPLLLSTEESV
Regarding `O=C1NC(=O)C(c2cn(CCCn3ccnc3)c3ccccc23)=C1Nc1ccccc1`, the residual activity was determined as 99.6%.

Regarding `CNc1cc2c(Nc3cccc(Br)c3)ncnc2cn1`, the residual activity amounted to 98.6%.

Take `Cc1ccc(Nc2nccc(N(C)c3ccc4c(C)n(C)nc4c3)n2)cc1S(N)(=O)=O`: the residual activity was found to be 97.7%.

Consider `Oc1cccc(-c2nc(N3CCOCC3)c3oc4ncccc4c3n2)c1`, for which the residual activity was 99.1%.

The next assay deals with TYK2 JH1 catalytic (human) (UniProt P29597). Described as above. Particulars: compound 0.5 µM; ATP 10 µM.
Take `O=C1NC(=O)C(c2cn(CCCn3ccnc3)c3ccccc23)=C1Nc1ccccc1`: the residual activity is 83.4%.

Take `CNc1cc2c(Nc3cccc(Br)c3)ncnc2cn1`: the residual activity amounted to 80.8%.

As for `Cc1ccc(Nc2nccc(N(C)c3ccc4c(C)n(C)nc4c3)n2)cc1S(N)(=O)=O`, the residual activity was 94%.

Consider `Oc1cccc(-c2nc(N3CCOCC3)c3oc4ncccc4c3n2)c1`, for which the residual activity turned out to be 73.6%.

A further assay addresses FGFR1 (human) (UniProt P11362). The assay is described as above. Particulars: compound 0.5 µM; ATP 10 µM.
As to `O=C1NC(=O)C(c2cn(CCCn3ccnc3)c3ccccc23)=C1Nc1ccccc1`, the residual activity came out at 78.5%.

For `CNc1cc2c(Nc3cccc(Br)c3)ncnc2cn1`, the residual activity was determined as 96.5%.

As for `Oc1cccc(-c2nc(N3CCOCC3)c3oc4ncccc4c3n2)c1`, the residual activity turned out to be 91.7%.

For another assay, the target named is ZAP70 (human) (UniProt P43403). The assay is described as above. Particulars: compound 0.5 µM; ATP 10 µM.
ZAP70 (human), sequence (P43403 whole entry, looked up): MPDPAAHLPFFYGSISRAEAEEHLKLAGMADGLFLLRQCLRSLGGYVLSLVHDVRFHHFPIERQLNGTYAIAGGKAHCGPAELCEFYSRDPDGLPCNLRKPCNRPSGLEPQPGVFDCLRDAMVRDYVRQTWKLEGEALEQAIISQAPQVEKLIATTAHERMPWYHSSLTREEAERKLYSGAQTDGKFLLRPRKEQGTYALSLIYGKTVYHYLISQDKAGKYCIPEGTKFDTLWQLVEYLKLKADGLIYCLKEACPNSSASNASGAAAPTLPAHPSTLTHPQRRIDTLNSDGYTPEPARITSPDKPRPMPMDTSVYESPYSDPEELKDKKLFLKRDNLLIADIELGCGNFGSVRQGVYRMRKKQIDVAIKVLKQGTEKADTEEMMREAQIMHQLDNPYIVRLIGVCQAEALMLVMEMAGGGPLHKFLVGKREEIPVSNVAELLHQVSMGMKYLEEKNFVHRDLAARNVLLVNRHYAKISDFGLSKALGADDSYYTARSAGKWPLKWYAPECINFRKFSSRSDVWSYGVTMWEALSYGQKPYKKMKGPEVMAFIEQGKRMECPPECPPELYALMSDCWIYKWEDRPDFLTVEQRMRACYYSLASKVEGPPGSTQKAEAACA
Turning to `O=C1NC(=O)C(c2cn(CCCn3ccnc3)c3ccccc23)=C1Nc1ccccc1`, the residual activity was determined as 104%.

Consider `CNc1cc2c(Nc3cccc(Br)c3)ncnc2cn1`, for which the residual activity was found to be 99.1%.

Turning to `Cc1ccc(Nc2nccc(N(C)c3ccc4c(C)n(C)nc4c3)n2)cc1S(N)(=O)=O`, the residual activity came to 92.6%.

For `Oc1cccc(-c2nc(N3CCOCC3)c3oc4ncccc4c3n2)c1`, the residual activity was found to be 91.4%.

The target in a further assay is GRK7 (human) (UniProt Q8WTQ7). The assay is described as above. Particulars: compound 0.5 µM; ATP 10 µM.
GRK7 (human), sequence (Q8WTQ7 whole entry, looked up): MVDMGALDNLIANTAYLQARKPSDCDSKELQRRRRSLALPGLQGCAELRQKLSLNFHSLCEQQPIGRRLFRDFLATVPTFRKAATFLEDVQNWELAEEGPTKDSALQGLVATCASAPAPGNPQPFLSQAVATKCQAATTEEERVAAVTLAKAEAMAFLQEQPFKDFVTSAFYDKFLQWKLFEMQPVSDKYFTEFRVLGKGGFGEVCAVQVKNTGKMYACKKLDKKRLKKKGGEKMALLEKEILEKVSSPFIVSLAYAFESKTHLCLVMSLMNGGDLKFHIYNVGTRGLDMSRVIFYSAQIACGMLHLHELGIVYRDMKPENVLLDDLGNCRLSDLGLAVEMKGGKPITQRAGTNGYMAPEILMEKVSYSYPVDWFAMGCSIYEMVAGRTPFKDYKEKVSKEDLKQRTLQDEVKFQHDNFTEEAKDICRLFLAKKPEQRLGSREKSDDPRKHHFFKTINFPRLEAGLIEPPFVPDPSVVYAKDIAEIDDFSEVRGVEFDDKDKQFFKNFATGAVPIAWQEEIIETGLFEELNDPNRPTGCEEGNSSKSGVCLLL
Turning to `O=C1NC(=O)C(c2cn(CCCn3ccnc3)c3ccccc23)=C1Nc1ccccc1`, the residual activity was found to be 86.3%.

With `CNc1cc2c(Nc3cccc(Br)c3)ncnc2cn1`, the residual activity amounted to 83.8%.

`Cc1ccc(Nc2nccc(N(C)c3ccc4c(C)n(C)nc4c3)n2)cc1S(N)(=O)=O`: the residual activity was determined as 96.5%.

Consider `Oc1cccc(-c2nc(N3CCOCC3)c3oc4ncccc4c3n2)c1`, for which the residual activity stood at 100%.

For the next assay, the target named is PTK2B (human) (UniProt Q14289). Described as above. To be noted: compound 0.5 µM; ATP 10 µM.
As to `O=C1NC(=O)C(c2cn(CCCn3ccnc3)c3ccccc23)=C1Nc1ccccc1`, the residual activity amounted to 93.3%.

In the case of `CNc1cc2c(Nc3cccc(Br)c3)ncnc2cn1`, the residual activity is 94.5%.

As for `Cc1ccc(Nc2nccc(N(C)c3ccc4c(C)n(C)nc4c3)n2)cc1S(N)(=O)=O`, the residual activity turned out to be 92%.

Regarding `Oc1cccc(-c2nc(N3CCOCC3)c3oc4ncccc4c3n2)c1`, the residual activity worked out at 103%.

For another assay, the target named is RPS6KA3 KD1 KD2 (human) (UniProt P51812). Described as above. Particulars: compound 0.5 µM; ATP 10 µM.
RPS6KA3 KD1 KD2 (human), sequence (P51812 whole entry, looked up): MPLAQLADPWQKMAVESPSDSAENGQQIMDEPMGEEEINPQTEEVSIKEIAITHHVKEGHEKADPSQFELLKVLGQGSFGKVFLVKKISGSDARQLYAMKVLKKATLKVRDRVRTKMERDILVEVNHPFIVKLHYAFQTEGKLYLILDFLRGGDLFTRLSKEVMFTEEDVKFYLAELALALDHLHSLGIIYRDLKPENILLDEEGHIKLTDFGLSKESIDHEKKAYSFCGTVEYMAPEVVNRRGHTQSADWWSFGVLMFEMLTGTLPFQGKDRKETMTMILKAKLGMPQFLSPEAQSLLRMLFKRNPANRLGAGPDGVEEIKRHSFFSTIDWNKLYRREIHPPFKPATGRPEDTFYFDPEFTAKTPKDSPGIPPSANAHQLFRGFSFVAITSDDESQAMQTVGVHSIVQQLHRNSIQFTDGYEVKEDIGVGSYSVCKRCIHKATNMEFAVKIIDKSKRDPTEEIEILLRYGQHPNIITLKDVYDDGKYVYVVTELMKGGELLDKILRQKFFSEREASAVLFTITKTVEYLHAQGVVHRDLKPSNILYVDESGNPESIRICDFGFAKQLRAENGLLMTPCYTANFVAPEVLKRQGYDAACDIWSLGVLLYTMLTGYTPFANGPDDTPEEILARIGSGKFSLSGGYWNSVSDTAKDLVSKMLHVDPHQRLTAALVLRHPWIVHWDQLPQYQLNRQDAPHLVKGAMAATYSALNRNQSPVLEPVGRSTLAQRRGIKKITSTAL
With `O=C1NC(=O)C(c2cn(CCCn3ccnc3)c3ccccc23)=C1Nc1ccccc1`, the residual activity came to 3.85%.

On to `CNc1cc2c(Nc3cccc(Br)c3)ncnc2cn1`, for which the residual activity stood at 86.6%.

Take `Cc1ccc(Nc2nccc(N(C)c3ccc4c(C)n(C)nc4c3)n2)cc1S(N)(=O)=O`: the residual activity worked out at 99.1%.

Turning to `Oc1cccc(-c2nc(N3CCOCC3)c3oc4ncccc4c3n2)c1`, the residual activity is 101%.

The target in a further assay is LCK (human) (UniProt P06239). The assay is described as above. Particulars: compound 0.5 µM; ATP 10 µM.
Regarding `O=C1NC(=O)C(c2cn(CCCn3ccnc3)c3ccccc23)=C1Nc1ccccc1`, the residual activity turned out to be 99.4%.

For `CNc1cc2c(Nc3cccc(Br)c3)ncnc2cn1`, the residual activity came to 96.7%.

As to `Cc1ccc(Nc2nccc(N(C)c3ccc4c(C)n(C)nc4c3)n2)cc1S(N)(=O)=O`, the residual activity stood at 43.3%.

Turning to `Oc1cccc(-c2nc(N3CCOCC3)c3oc4ncccc4c3n2)c1`, the residual activity stood at 98%.

For another assay, the target named is CLK2 (human) (UniProt P49760). The description is as above. Particulars: compound 0.5 µM; ATP 10 µM.
As to `O=C1NC(=O)C(c2cn(CCCn3ccnc3)c3ccccc23)=C1Nc1ccccc1`, the residual activity is 14.7%.

For `CNc1cc2c(Nc3cccc(Br)c3)ncnc2cn1`, the residual activity was found to be 88.3%.

Take `Cc1ccc(Nc2nccc(N(C)c3ccc4c(C)n(C)nc4c3)n2)cc1S(N)(=O)=O`: the residual activity is 90.9%.

For `Oc1cccc(-c2nc(N3CCOCC3)c3oc4ncccc4c3n2)c1`, the residual activity is 88%.

Another assay addresses PLK1 (human) (UniProt P53350). The description is as above. To be noted: compound 0.5 µM; ATP 10 µM.
Turning to `O=C1NC(=O)C(c2cn(CCCn3ccnc3)c3ccccc23)=C1Nc1ccccc1`, the residual activity is 99.5%.

Turning to `CNc1cc2c(Nc3cccc(Br)c3)ncnc2cn1`, the residual activity is 93.5%.

As for `Cc1ccc(Nc2nccc(N(C)c3ccc4c(C)n(C)nc4c3)n2)cc1S(N)(=O)=O`, the residual activity is 99.5%.

In the case of `Oc1cccc(-c2nc(N3CCOCC3)c3oc4ncccc4c3n2)c1`, the residual activity worked out at 97.9%.

The next assay deals with ROCK2 (human) (UniProt O75116). The description is as above. To be noted: compound 0.5 µM; ATP 10 µM.
For the molecule `O=C1NC(=O)C(c2cn(CCCn3ccnc3)c3ccccc23)=C1Nc1ccccc1`, the residual activity came out at 100%.

Take `CNc1cc2c(Nc3cccc(Br)c3)ncnc2cn1`: the residual activity was 99.5%.

For the molecule `Cc1ccc(Nc2nccc(N(C)c3ccc4c(C)n(C)nc4c3)n2)cc1S(N)(=O)=O`, the residual activity amounted to 91.1%.

Turning to `Oc1cccc(-c2nc(N3CCOCC3)c3oc4ncccc4c3n2)c1`, the residual activity was 94.5%.

The next assay has as its target STK33 (human) (UniProt Q9BYT3). The description is as above. To be noted: compound 0.5 µM; ATP 10 µM.
Take `O=C1NC(=O)C(c2cn(CCCn3ccnc3)c3ccccc23)=C1Nc1ccccc1`: the residual activity was 82.9%.

On to `CNc1cc2c(Nc3cccc(Br)c3)ncnc2cn1`, for which the residual activity was determined as 95.2%.

Turning to `Cc1ccc(Nc2nccc(N(C)c3ccc4c(C)n(C)nc4c3)n2)cc1S(N)(=O)=O`, the residual activity amounted to 87.1%.

The target of another assay is ERBB4 (human) (UniProt Q15303). The description is as above. To be noted: compound 0.5 µM; ATP 10 µM.
As for `O=C1NC(=O)C(c2cn(CCCn3ccnc3)c3ccccc23)=C1Nc1ccccc1`, the residual activity was 59.6%.

On to `CNc1cc2c(Nc3cccc(Br)c3)ncnc2cn1`, for which the residual activity is 58.6%.

Take `Cc1ccc(Nc2nccc(N(C)c3ccc4c(C)n(C)nc4c3)n2)cc1S(N)(=O)=O`: the residual activity worked out at 86.9%.

For `Oc1cccc(-c2nc(N3CCOCC3)c3oc4ncccc4c3n2)c1`, the residual activity was determined as 97.6%.

The target in the next assay is DAPK1 (human) (UniProt P53355). The assay is described as above. Particulars: compound 0.5 µM; ATP 10 µM.
With `O=C1NC(=O)C(c2cn(CCCn3ccnc3)c3ccccc23)=C1Nc1ccccc1`, the residual activity worked out at 99.2%.

Regarding `CNc1cc2c(Nc3cccc(Br)c3)ncnc2cn1`, the residual activity was 80.5%.

Take `Cc1ccc(Nc2nccc(N(C)c3ccc4c(C)n(C)nc4c3)n2)cc1S(N)(=O)=O`: the residual activity was found to be 105%.

As to `Oc1cccc(-c2nc(N3CCOCC3)c3oc4ncccc4c3n2)c1`, the residual activity amounted to 78%.

In another assay the target is CAMK1D (human) (UniProt Q8IU85). The description is as above. Particulars: compound 0.5 µM; ATP 10 µM.
Regarding `O=C1NC(=O)C(c2cn(CCCn3ccnc3)c3ccccc23)=C1Nc1ccccc1`, the residual activity came to 97.4%.

With `CNc1cc2c(Nc3cccc(Br)c3)ncnc2cn1`, the residual activity amounted to 92.5%.

For `Cc1ccc(Nc2nccc(N(C)c3ccc4c(C)n(C)nc4c3)n2)cc1S(N)(=O)=O`, the residual activity was 91.5%.

As to `Oc1cccc(-c2nc(N3CCOCC3)c3oc4ncccc4c3n2)c1`, the residual activity stood at 121%.

The next assay has as its target NEK6 (human) (UniProt Q9HC98). The assay is described as above. Particulars: compound 0.5 µM; ATP 10 µM.
`O=C1NC(=O)C(c2cn(CCCn3ccnc3)c3ccccc23)=C1Nc1ccccc1`: the residual activity is 93.6%.

For `CNc1cc2c(Nc3cccc(Br)c3)ncnc2cn1`, the residual activity was 89.8%.

In the case of `Cc1ccc(Nc2nccc(N(C)c3ccc4c(C)n(C)nc4c3)n2)cc1S(N)(=O)=O`, the residual activity came out at 96.1%.

Consider `Oc1cccc(-c2nc(N3CCOCC3)c3oc4ncccc4c3n2)c1`, for which the residual activity stood at 106%.

The next assay deals with FGFR2 (human) (UniProt P21802). The assay is described as above. Particulars: compound 0.5 µM; ATP 10 µM.
FGFR2 (human), sequence (P21802 whole entry, looked up): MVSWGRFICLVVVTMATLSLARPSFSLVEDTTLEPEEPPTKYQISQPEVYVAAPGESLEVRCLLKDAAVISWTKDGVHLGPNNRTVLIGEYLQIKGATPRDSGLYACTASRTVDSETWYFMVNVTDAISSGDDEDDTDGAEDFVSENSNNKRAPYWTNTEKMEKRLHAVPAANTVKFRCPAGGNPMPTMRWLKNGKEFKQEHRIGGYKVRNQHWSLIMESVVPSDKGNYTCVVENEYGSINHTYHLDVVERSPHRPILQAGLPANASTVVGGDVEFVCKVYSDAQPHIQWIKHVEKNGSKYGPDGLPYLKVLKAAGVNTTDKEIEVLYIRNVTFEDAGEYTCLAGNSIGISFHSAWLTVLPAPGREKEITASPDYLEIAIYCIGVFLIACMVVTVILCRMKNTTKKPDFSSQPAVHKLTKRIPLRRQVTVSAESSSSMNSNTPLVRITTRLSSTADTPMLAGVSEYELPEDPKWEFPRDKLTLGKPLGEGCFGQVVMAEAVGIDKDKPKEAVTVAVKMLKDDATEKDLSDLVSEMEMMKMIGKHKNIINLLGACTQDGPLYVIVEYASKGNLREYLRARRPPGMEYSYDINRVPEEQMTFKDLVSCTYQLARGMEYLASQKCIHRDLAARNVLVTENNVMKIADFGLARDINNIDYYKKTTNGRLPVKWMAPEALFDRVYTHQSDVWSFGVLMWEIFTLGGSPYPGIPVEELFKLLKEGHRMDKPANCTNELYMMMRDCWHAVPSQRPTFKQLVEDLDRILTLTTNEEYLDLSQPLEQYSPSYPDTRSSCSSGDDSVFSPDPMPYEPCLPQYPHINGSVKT
For the molecule `O=C1NC(=O)C(c2cn(CCCn3ccnc3)c3ccccc23)=C1Nc1ccccc1`, the residual activity was 103%.

On to `CNc1cc2c(Nc3cccc(Br)c3)ncnc2cn1`, for which the residual activity was 96.3%.

For the molecule `Cc1ccc(Nc2nccc(N(C)c3ccc4c(C)n(C)nc4c3)n2)cc1S(N)(=O)=O`, the residual activity is 40.2%.

With `Oc1cccc(-c2nc(N3CCOCC3)c3oc4ncccc4c3n2)c1`, the residual activity was found to be 95.7%.

The next assay has as its target MAPK10 (human) (UniProt P53779). Described as above. Particulars: compound 0.5 µM; ATP 10 µM.
On to `O=C1NC(=O)C(c2cn(CCCn3ccnc3)c3ccccc23)=C1Nc1ccccc1`, for which the residual activity turned out to be 100%.

In the case of `CNc1cc2c(Nc3cccc(Br)c3)ncnc2cn1`, the residual activity was determined as 96.1%.

Take `Oc1cccc(-c2nc(N3CCOCC3)c3oc4ncccc4c3n2)c1`: the residual activity worked out at 102%.

As a reminder, the residual activity is the signal under treatment as a percentage of the control signal.
